Reference: patent US7875270B2, “Treatment solution and method for preventing posterior capsular opacification by selectively inducing detachment and/or death of lens epithelial cells” (Abbott Medical Optics Inc., priority 2002, dated 2011)

Experiments:
in vivo rabbit eyes = experiment: In vivo prevention of PCO after cataract operation in rabbit eyes; details: bumetanide and hyperosmotic NaCl
Experimental: The experimental group includes sixteen rabbit eyes and the control group includes four rabbit eyes. A sham cataract operation is performed on the control animals. The therapy is introduced to the others.
The pupil of each rabbit eye is preoperatively dilated with topical G Phenylephrine 10% (Alcon Labs., Inc., China) and G Cyclopentolate 1% (Bausch & Lomb Pharm., Inc., USA) three times in one hour. The rabbits are anesthetized with ketamine hydrochloride (5 mg kg-1) and xylazine hydrochloride (2 mg kg-1) and placed on an operating table. A topical anesthetic (Dieaine hydrochloride 1%) is used every five minutes on two occasions. A wire lid speculum is placed to hold the eyelids open.
A 3.2 mm scleral tunnel incision into the eye is formed at the temporal limbus. The anterior chamber is maintained with viscoelastic substances and a 4-5 mm diameter continuous curvilinear capsularhexis (CCC) is made on the anterior surface of the lens to open its bag. The treatment solution is first introduced in the LECs by hydrodissection. This ensures that the treatment fluid immediately reaches under the entire anterior capsule/LECs. This process allows for (i) separation of the lens cortex from the capsule and lens epithelium, making removal of the lens cortex easier at a later stage of the operation and (ii) the LECs to be exposed to the treatment for enough time (more than five minutes in total time).
The crystalline lens is then removed using phacoemulsification (Universal II, Alcon Labs., Inc., China). The remaining cortex is aspirated thoroughly and removed as completely as possible to expose the LECs. The lens capsular bag is then partially filed with viscoelastic material in order to maintain its shape. The viscoelastic material should not cover the LECs when the treatment solution is applied.
The treatment is spread over the inner surface of the anterior capsular bag (where the LECs attach). The anterior capsular is continuously filled by using a syringe with a bent needle. Care is taken not to over flow the bag. After the treatment solution covered the capsule bag, it is left for five minutes and then removed using a syringe.
In a few cases, IOLs are inserted. […] At the same time, the incision is enlarged to 6.0 mm and a posterior ocular lens (IOLs) (poly-methyl methacrylate, PMMA) with a 6.5 mm optic is prepared and placed into the capsular bag.
The wound is closed with or without suture.
At the completion of the surgical procedure, each rabbit eye receives subconjunctival dexamethasone (0.25 ml) and gentamicin (0.25 ml). Postoperatively, atropine sulphate 1% ophthalmic solution and neomycin sulphate-polymyxin sulphate-dexamethasone ophthalmic ointment are administered twice daily for three weeks.
The animals are evaluated for three weeks and ten weeks. […] All rabbits are evaluated by slitlamp and scored for ocular responses at 1 day and at 1, 2 and 3 weeks. (See FIG. 17, Table 1.) Three and ten weeks after surgery, the animals are anesthetized using a 2 ml intramuscular injection of 11:1 mixture of ketamine hydrochloride and xylazine 20 mg/ml and then killed with a 2 ml intravenous injection of sodium pentobarbital.
The eye globes are enucleated (some of them fixed in neutral buffered formalin 10% solution for 24 hours) and are bisected coronally just anterior to the equator. Gross examination is performed to assess. PCO development. Photographs are taken from behind (Miyake-Apple posterior photographic technique) by using a digital camera fitted to an operating microscope (Leica/Wild MZ-8, Vashaw Scientific, Inc.).
The extent and severity of PCO is scored (see FIG. 17, Table 1) according to methods reported in the literature. The lens capsules are then fixed and evaluated under a microscope (Olumpus, Optical Co. Ltd.) and photographed with a digital camera.

[1] = test system: human lens epithelial cells (LECs); experiment: Confluent LEC monolayers exposed to solutions; MTT cell viability and microscopy; assay type: cell-based; details: 28 μM, 112 μM and 224 μM bumetanide, ≦200 mM NaCl, 3 μl of 5N NaOH

## CCCCNc1cc(C(=O)O)cc(S(N)(=O)=O)c1Oc1ccccc1 [bumetanide]
In vivo rabbit eyes
  Soemmering's ring: Some degree of Soemmering's ring forms
In vivo rabbit eyes; three weeks
  cell proliferation on the lens anterior capsule: not significant cell proliferation
In vivo rabbit eyes; three weeks follow up
  development of CPCO and PPCO: no CPCO and PPCO develop
[1]
  LECs showing MTT negative response: ~100%
[1]; about ten minutes
  LEC response under phase-contrast microscopic observation: nearly all of the LECs shrink, detach and/or die
